Experiment [1] has as its target T1, recombinant human FUCA1 (human lysosomal α-L-fucosidase) (Homo sapiens, UniProt P04066).
T1 construct: expressed in transfected cells; host or cells: COS-7
T1 sequence (P04066 32-466): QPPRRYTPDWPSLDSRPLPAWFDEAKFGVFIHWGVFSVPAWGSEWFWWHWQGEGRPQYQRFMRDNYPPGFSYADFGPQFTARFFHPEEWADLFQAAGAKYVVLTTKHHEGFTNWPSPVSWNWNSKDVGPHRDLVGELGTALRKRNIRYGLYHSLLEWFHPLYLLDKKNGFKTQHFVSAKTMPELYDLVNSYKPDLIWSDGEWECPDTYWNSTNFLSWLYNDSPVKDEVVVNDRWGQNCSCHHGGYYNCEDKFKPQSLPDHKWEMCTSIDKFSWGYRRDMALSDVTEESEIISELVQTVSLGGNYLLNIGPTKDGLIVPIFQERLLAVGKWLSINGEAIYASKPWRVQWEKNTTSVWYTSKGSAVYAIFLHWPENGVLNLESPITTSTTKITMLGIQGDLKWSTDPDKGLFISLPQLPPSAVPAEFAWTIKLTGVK
Briefly: In vitro inhibition of FUCA1 activity, 4-methylumbelliferyl-α-L-fucopyranoside substrate, lysates of COS-7 cells over-expressing enzyme. Format: biochemical. As to the method:
Having the cyclophellitol aziridine inhibitors and probes in hand, we determined their inhibitory potency towards the human lysosomal α-L-fucosidase, FUCA1.
The enzymatic activity of α-L-fucosidase was assayed at 37 °C by incubating with 1.5 mM 4-methylumbelliferyl-α-L-fucopyranoside as substrate in 150 mM McIlvaine buffer, pH 4.5, supplemented with 0.1% (w/v) BSA. […] The reaction was quenched by adding excess NaOH–glycine (pH 10.6), after which fluorescence was measured with a fluorimeter LS55 (Perkin Elmer) using λEX 366 nm and λEM 445 nm.

Experiment [2] has as its target T2, FUCA1 (recombinant human GH29 α-L-fucosidase per table title) (Homo sapiens, UniProt P04066).
T2 construct: endogenous in cells; host or cells: fibroblasts
T2 sequence (P04066 32-466): T1 sequence (P04066 32-466)
Briefly: In situ inhibition of FUCA1 in living fibroblasts. Format: cell-based.

For experiment [3], the system named is recombinant α-L-fucosidase from Bacteroides thetaiotaomicron gene 2970. Briefly: Competitive ABPP in E. coli lysate overexpressing bacterial α-L-fucosidase, ABP 1 labeling. Format: binding. As to the method: (§1) All pre-incubations and ABP labeling-reactions occurred for 30 min at 37 °C. Total lysates (50 μg), medium (500 μg) or purified protein preparations (5 μg) were labeled with 1 μM JJB256 1 or JJB244 2, dissolved in 150 mM McIlvaine buffer, pH 4.5, incubating for 30 min at 37 °C. For ABPP, protein preparations were pre-incubated with compounds 4 (100 μM), 6 (100 μM), 7–13 (1 or 5 mM, specified in the main text) prior to the addition of 100 nM fluorescent ABPs. Influence of pH on ABP labeling involved pre-incubation at pH 3–10 prior to addition of 100 nM ABP 1. Direct labeling of retaining β-glucosidases occurred at pH 5.0 in conjunction with 100 nM ABP JJB75. Samples were then denatured with 5× Laemmli buffer (50% (v/v) 1 M Tris–HCl, pH 6.8, 50% (v/v) 100% glycerol, 10% (w/v) DTT, 10% (w/v) SDS, 0.01% (w/v) bromophenol blue), boiled for 4 min at 100 °C, and separated by gel electrophoresis on 10% (w/v) SDS-PAGE gels running continuously at 90 V.[13],[14] Wet slab-gels were scanned on fluorescence using a Typhoon Variable Mode Imager (Amersham Biosciences) using λEX 488 nm and λEM 520 nm (band pass filter 40 nm) for green fluorescent JJB256 1 and λEX 532 nm and λEM 610 nM (band pass filter 30 nm) for red fluorescent JJB244 2 and JJB75.

Experiment [4] addresses T3, α-L-fucosidase (Homo sapiens, UniProt P04066).
T3 construct: lysates of spleens from a healthy human individual and a patient suffering from Gaucher disease; from tissue; host or cells: human spleen (normal subject and type 1 Gaucher patient)
T3 sequence (P04066 32-466): T1 sequence (P04066 32-466)
Briefly: Competitive ABPP in human spleen lysates (healthy and Gaucher), ABP 1 labeling. Format: binding. From the text: Subsequently, we exposed lysates of spleens from a healthy human individual and a patient suffering from Gaucher disease to ABP 1. […] The labeled band from human Gaucher spleen lysate is considerably more intense than the corresponding band in healthy human spleen, reflecting elevated α-L-fucosidase activity in the former. […] As before, labeling with ABP 1 was suppressed after pre-treatment with either N-benzoyl aziridine 4 or L-fuconojirimycin 6. To further ascertain that […] labels mammalian GH29 retaining α-L-fucosidases we performed a number of control experiments (ESI Fig. S2a ^†). Compound 1 labeled both FUCA1 and FUCA2 that were overexpressed in COS cells. Treatment of murine spleen lysates with 1 yielded a result essentially as observed for healthy human tissue (ESI Fig. S2b ^†).
All pre-incubations and ABP labeling-reactions occurred for 30 min at 37 °C. Total lysates (50 μg), medium (500 μg) or purified protein preparations (5 μg) were labeled with 1 μM JJB256 1 or JJB244 2, dissolved in 150 mM McIlvaine buffer, pH 4.5, incubating for 30 min at 37 °C. […] Wet slab-gels were scanned on fluorescence using a Typhoon Variable Mode Imager (Amersham Biosciences) using λEX 488 nm and λEM 520 nm (band pass filter 40 nm) for green fluorescent JJB256 1 and λEX 532 nm and λEM 610 nM (band pass filter 30 nm) for red fluorescent JJB244 2 and JJB75.

Experiment [5] deals with T4, FUCA1 (Homo sapiens, UniProt P04066).
T4 sequence (P04066 32-466): T1 sequence (P04066 32-466)
Briefly: Competitive ABPP on recombinant FUCA1 with ABP 1 labeling as readout. Format: binding. On the set-up: expressed in transfected cells; host or cells: COS-7. As to conditions: competitive ABPP format. As to the method: as §1

Experiment [6] deals with T4, FUCA1. Briefly: ABP pulldown from Gaucher spleen lysate and LC-MS/MS identification. Format: binding. On the set-up: lysates of spleens from a healthy human individual and a patient suffering from Gaucher disease; from tissue; host or cells: human spleen (normal subject and type 1 Gaucher patient). The following applies: 10 μM probe, Gaucher spleen lysate. As to the method: To further determine the specificity of the developed ABPs, we have analyzed the ABP-labeled proteins in a complex tissue homogenate. For this purpose, we incubated Gaucher spleen lysate with biotinylated ABP 3 or with DMSO only (control) or competitive ABP 3-labeling by first incubating with fluorescent ABP 1. Glycosylated proteins were then enriched via ConA, followed by affinity purification with streptavidin coated paramagnetic beads. The identity of biotinylated and ABP 3-labeled proteins was determined by on-bead digestion with trypsin, peptide analysis by LC-MS/MS and matching against the human UniProt database, using the Mascot search engine as previously reported.[14] […]
Gaucher spleen lysate (1 g) was cut with a sterile scalpel, mixed with 4 mL 25 mM potassium phosphate buffer (pH 6.5, supplemented with 0.1% (v/v) Triton X-100 and protease inhibitor cocktail (Roche)) and sonicated three times for 10 seconds at 100% strength and kept on ice. […] Lysate was then centrifuged for 10 min at 10 000 g, supernatant collected carefully, protein concentration determined and […] total protein was then incubated with either 0.1% (v/v) DMSO, ABP 1 or ABP 3, or firstly with 10 μM ABP 1 followed by 10 μM of ABP 3, each step taking 30 min at 37 °C, in a total volume of 1 mL McIlvaine buffer, pH 4.5. […]

Here are results for six compounds from paper PMC5654414, “In vitro and in vivo comparative and competitive activity-based protein profiling of GH29 α-L-fucosidases” (Chemical Science, 2015).

Broadly, the IC50 is the concentration that inhibits the measured activity by half. Turning to `C[C@H]1[C@@H](O)[C@@H](O)[C@H](O)[C@H]2[C@@H]1N2C(=O)c1ccccc1` [compound 4], the concentration for half-maximal inhibition (IC50) in experiment [1] was 0.372 ± 0.0212 µM; in experiment [2], 0.515 ± 0.0729 µM. Moreover, the fold less active result in experiment [1] (compared to 5) is on record as “about eight-fold”. For the same compound, the “blocking of ABP 1 labeling of major 50 kD band” value in experiment [3] (pre-incubation with 100 μM) is recorded as “blocked”. The “suppression of ABP 1 labeling after pre-treatment” value in experiment [4] is listed as “suppressed”.

As for `C[C@@H]1NC[C@@H](O)[C@H](O)[C@@H]1O.Cl` [compound 6, 1-deoxy-L-fuconojirimycin, reference compound], the “blocking of ABP 1 labeling of major 50 kD band” value in experiment [3] (pre-incubation with 5 mM) is on record as “blocked”. Also, the “suppression of ABP 1 labeling after pre-treatment” value in experiment [4] is given as “suppressed”. For the same compound, the “blocking of ABP 1 labeling of α-L-fucosidase” value in experiment [5] is on record as “able to inhibit FUCA1”.

In the case of `CC(=O)N1[C@@H]2[C@@H](C)[C@@H](O)[C@@H](O)[C@H](O)[C@@H]21` [compound 5], the half-maximal inhibitory concentration (IC50) came to 0.0468 ± 0.0034 µM in experiment [1] and 0.0779 ± 0.0091 µM in experiment [2].

Regarding `COc1ccc(C2=[N+]3C(=C(CCCCc4cn(CCCCCCCC(=O)N5[C@@H]6[C@@H](C)[C@@H](O)[C@@H](O)[C@H](O)[C@@H]65)nn4)c4ccc(-c5ccc(OC)cc5)n4[B-]3(F)F)C=C2)cc1` [compound 2], the values for the IC50 in experiment [1] and in experiment [2] were 0.0087 ± 0.0012 µM and 0.158 ± 0.022 µM, respectively.

For the compound `C[C@H]1[C@@H](O)[C@@H](O)[C@H](O)[C@H]2[C@@H]1N2C(=O)CCCCCCCN=[N+]=[N-]` [compound 23], the IC50 is 0.0087 ± 0.0011 µM in experiment [1] and 0.0654 ± 0.0075 µM in experiment [2]. Moreover, the “fold increase in enzyme inhibition” value in experiment [1] (comparing 5 with 23) stood at 5 fold.

With `C[C@H]1[C@@H](O)[C@@H](O)[C@H](O)[C@H]2[C@@H]1N2C(=O)CCCCCCCn1cc(CNC(=O)CCCCCNC(=O)CCCC[C@@H]2SC[C@@H]3NC(=O)N[C@@H]32)nn1` [compound 3], the concentration for half-maximal inhibition (IC50) in experiment [1] is 0.0072 ± 0.0011 µM. Moreover, the “identification of FUCA1 after pull-down” value in experiment [6] was “one of the top identified proteins”.
